Assay results: article PMC8049054, “Systematic Assessment of Fragment Identification for Multitarget Drug Design” (Chemmedchem, 2021)
Blank lines part the entries; values can stand above or below the compound they belong to.

How the values were obtained:
[1] = system: T1, soluble epoxide hydrolase (sEH); experiment: Differential scanning fluorimetry (DSF) screen on sEH; assay type: binding; conditions: 50 µM reference compound, triplicates repeated 3 times
T1 construct: For the expression of sEH-H and sEH-Fl transformed E.coli BL21 (DE3) cells were grown in 5052; made in house; host or cells: E. coli BL21 (DE3)

5‐lipoxygenase (5‐LOX) [2] = target: T2, 5‐lipoxygenase (5‐LOX) (Homo sapiens, UniProt P09917); experiment: 5-LOX activity assay (HPLC detection of product formation); assay type: biochemical; conditions: mean±standard deviation of three independent experiments
T2 construct: made in house; host or cells: E. coli BL21 (DE3)
T2 sequence (P09917 1-674): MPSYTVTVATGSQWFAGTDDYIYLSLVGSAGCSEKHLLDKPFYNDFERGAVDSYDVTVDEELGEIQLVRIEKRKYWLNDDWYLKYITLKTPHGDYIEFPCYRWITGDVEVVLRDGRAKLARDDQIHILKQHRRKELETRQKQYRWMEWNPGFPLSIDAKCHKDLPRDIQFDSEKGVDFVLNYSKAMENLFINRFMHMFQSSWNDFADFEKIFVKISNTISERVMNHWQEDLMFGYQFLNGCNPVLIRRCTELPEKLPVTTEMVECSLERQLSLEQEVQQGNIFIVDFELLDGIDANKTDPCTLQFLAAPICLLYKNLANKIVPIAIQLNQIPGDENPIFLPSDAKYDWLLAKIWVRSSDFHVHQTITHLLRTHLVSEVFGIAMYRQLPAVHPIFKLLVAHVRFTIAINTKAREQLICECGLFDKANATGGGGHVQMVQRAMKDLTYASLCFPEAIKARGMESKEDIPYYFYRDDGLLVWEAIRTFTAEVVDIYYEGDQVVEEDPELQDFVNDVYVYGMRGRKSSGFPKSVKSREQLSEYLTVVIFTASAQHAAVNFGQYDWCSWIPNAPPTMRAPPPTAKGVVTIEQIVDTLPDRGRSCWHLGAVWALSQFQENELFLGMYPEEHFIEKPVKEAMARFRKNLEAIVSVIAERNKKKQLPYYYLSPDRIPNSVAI
Procedure: (§1) For hit validation, we employed secondary assays with orthogonal readouts to confirm fragment activities. Biochemical activity assays were chosen for the enzymes sEH, LTA4H, and 5‐LOX. […] RXRα and FXR modulation was assessed in cell‐based hybrid reporter gene assays. All ten compounds were tested at a single concentration of 500 μM in the sEH and LTA4H activity assays and with a concentration of 100 μM on 5‐LOX, RXRα, and FXR. Fragments showing an inhibition greater than 50 % (sEH‐H and LTA4H) or greater than 70 % (5‐LOX) as well as the hits determined in the DSF experiments were further characterized in full concentration‐response curves between 0.1 and 1000 μM. […] As alternative cell‐free assay we employed isothermal titration calorimetry (ITC) to determine binding affinity of the fragments towards the LBDs of both nuclear receptors. ITC was performed with a protein concentration of 50 μM and compound concentrations of 250 μM.
(§2) The 10 fragments showing dual activity in the DSF experiments were validated by functional assay screening with a fixed concentration of 500 µM in case of sEH-H and LTA4H, 100 µM in case of 5-LOX and 30 µM, 10 µM and 5 µM in case of FXR and […]
(§3) % (5-LOX) as well as the hits determined in the DSF experiments were further measured with concentrations between 1000 µM and 0.1 µM (sEH-H and LTA4H) and between 300 µM and 1 µM (5-LOX). The sEH and LTA4H activity assays were performed as triplicate and repeated 3 times. The 5-LOX activity assay was performed with one point per concentration and repeated 3 times Raw data was first analyzed in Microsoft Office Excel (2013), before IC50 curves were plotted and further analyzed using GraphPad Prism 7 and GraphPad Prism 8 for the shown graphs .
The eight approved drugs were measured in the orthogonal assay systems analogous to the fragments. […]
For the 5-LOX they […]
were measured as single point measurement in three different experiments with concentrations between 300 µM and 1 µM. For […]
Raw data was processed according to the fragments. […]

[3] = target: T3, soluble epoxide hydrolase (sEH) (Homo sapiens, UniProt P34913); experiment: sEH-H activity assay (fluorogenic substrate PHOME); assay type: biochemical; conditions: approved drug, 1-1000 µM
T3 construct: made in house; host or cells: E. coli BL21 (DE3)
T3 sequence (P34913 1-555): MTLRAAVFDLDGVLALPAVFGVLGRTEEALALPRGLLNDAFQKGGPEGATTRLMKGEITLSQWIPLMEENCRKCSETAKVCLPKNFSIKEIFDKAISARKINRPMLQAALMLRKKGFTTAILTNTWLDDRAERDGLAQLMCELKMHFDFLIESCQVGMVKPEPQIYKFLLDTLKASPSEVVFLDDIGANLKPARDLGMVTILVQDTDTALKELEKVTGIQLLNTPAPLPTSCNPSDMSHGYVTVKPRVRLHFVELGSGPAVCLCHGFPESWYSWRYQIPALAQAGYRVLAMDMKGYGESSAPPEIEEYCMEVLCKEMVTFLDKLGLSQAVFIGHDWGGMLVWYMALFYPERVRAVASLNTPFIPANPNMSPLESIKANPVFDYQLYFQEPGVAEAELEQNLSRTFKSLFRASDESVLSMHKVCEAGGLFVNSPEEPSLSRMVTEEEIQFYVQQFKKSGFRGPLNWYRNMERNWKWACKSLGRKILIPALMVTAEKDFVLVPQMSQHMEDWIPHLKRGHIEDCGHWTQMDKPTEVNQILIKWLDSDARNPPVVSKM
Procedure: as §1, §2, §3
The eight approved drugs were measured in the orthogonal assay systems analogous to the fragments. The approved drugs were […]
For the sEH-H and LTA4H, they were measured as triplicate in concentrations between 1000 µM and 1 µM and each measurement was repeated three times. For the 5-LOX they were measured as single point measurement in three different experiments with concentrations between 300 µM and 1 µM. For […]
Raw data was processed according to the fragments.
The sEH-H activity assay was performed adapted from Hahn et al.5 and Lukin et al.6. In short 1 µl of compound dilution in DMSO or pure DMSO (for the positive and negative control) was placed in a black 96-well plate (Thermo Scientific™ Nunc™ F96 MicroWell™ Black Polystyrene Plate) and then 89 µl of protein-mix or buffer mix (without protein as negative control) were added and the mixture was incubated for 30 min at room temperature. 10 µl of 0.6 mM 3-phenyl-cyano(6-methoxy-2-naphthalenyl)methylester-2-oxiraneacetic acid (PHOME) were added to every well. The Plate was measured every minute for 45 min. Final concentration per well was 3 nM sEH-Fl, 0.001 % Triton X-100, 25 mM Bis-tris, 0.1 mg/ml BSA, pH = 7.0, 1.6% DMSO […]

[4] = system: sEH, LTA4H, 5‐LOX, RXRα, FXR; experiment: DSF primary screen, statement over all five proteins; assay type: binding; conditions: 500 μM
Excerpt: For the primary screen of this fragment library, we employed differential scanning fluorimetry (DSF, also known as thermal shift). DSF is generally applicable to a large panel of protein targets and provides a robust, low‐cost screening technology for fragment‐based approaches. ^[20] All five proteins of our interest are soluble and were recombinantly expressed in Escherichia coli. We performed an initial fragment screen on all five targets by DSF. The use of a uniform screening method for all targets ensured consistent data and provided the opportunity to identify false positive hits which interfered with the screening technology. The conditions of the DSF assay were optimized for the desired screening and validated with reference compounds (Table S1 in the Supporting Information). Compounds causing a positive thermal shift ΔT m≥1.0 °C were considered as active. […]
The measurements were performed using a iCycler iQ™ Single -Color Real Time PCR device with a heat rate of 1 °C per min, an excitation wavelength of 490 nm and an emission wavelength of 570 nm. The first derivation calculated by MyiQ Op tical Software 1.0 was analyzed using Microsoft Office Excel 2013 by comparing the maxima. […]

RXRα = system: T4, RXRα; experiment: Differential scanning fluorimetry (DSF) screen on RXRα; assay type: binding; conditions: 50 µM reference compound; measured once as triplicate; no melting curve with DMSO
T4 construct: MBP (N, cleaved yes); poly-N-tag, His8-tag, TEV site (N, cleaved yes); made in house; host or cells: E. coli T7-express with pGro7 (GroEL/ES)

5‐lipoxygenase (5‐LOX) [5] = target: T2, 5‐lipoxygenase (5‐LOX); experiment: Differential scanning fluorimetry (DSF) screen on 5-LOX; assay type: binding; conditions: 100 µM reference compound; measured once as triplicate
[6] = target: T5, leukotriene A4 hydrolase (LTA4H) (Homo sapiens, UniProt P09960); experiment: Differential scanning fluorimetry (DSF) screen on LTA4H; assay type: binding; conditions: 50 µM reference compound, triplicates repeated 3 times
T5 construct: made in house; host or cells: E. coli BL21 (DE3)
T5 sequence (P09960 1-611): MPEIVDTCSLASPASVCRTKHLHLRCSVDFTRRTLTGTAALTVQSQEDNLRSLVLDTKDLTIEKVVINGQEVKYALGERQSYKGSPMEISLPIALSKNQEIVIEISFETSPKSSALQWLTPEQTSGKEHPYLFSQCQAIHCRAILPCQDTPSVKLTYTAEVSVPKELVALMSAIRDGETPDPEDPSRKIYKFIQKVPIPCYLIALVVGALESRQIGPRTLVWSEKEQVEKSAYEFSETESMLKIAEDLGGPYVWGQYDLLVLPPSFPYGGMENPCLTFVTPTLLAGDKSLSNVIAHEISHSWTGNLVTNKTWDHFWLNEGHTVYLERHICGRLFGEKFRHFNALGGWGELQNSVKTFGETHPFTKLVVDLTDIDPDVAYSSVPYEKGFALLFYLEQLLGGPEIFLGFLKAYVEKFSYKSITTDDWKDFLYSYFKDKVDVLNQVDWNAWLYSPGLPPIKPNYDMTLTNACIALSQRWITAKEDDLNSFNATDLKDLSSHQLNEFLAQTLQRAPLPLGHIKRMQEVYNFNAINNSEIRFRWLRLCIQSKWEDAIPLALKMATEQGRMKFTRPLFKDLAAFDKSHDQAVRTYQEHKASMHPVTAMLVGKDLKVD

TM(ref) 5-LOX (5‐lipoxygenase (5‐LOX) [5]): 63.7 ± 0.6 °C
SMILES: C[C@H](C#Cc1ccc(Cc2ccc(F)cc2)s1)N(O)C(N)=O [atreleuton]

TM(ref) LTA4H [6]: 60.7 ± 0.9 °C
ΔTM LTA4H ([6]; in °C): 5.9 ± 0.7
SMILES: CC(C)C[C@H](NC(=O)[C@@H](O)[C@H](N)Cc1ccccc1)C(=O)O [bestatin]

The remaining lines, values behind:

SMILES: O=C(Nc1ccc(I)cc1)NC1CCCCC1 [CIU]
TM(ref) sEH-H [1]: 62.2 ± 0.4 °C
ΔTM sEH-H ([1]; in °C): 5.6 ± 0.5

SMILES: CC(C)COCC(CN(Cc1ccccc1)c1ccccc1)N1CCCC1 (stereo not shown) [Compound 15, bepridil, reference compound]
IC50 (5‐lipoxygenase (5‐LOX) [2]): 3.2 µM
activity towards sEH [3]: completely loosing activity

SMILES: O=C(NCc1cccnc1)c1ccc(O)cc1 [Compound 22]
activity in the DSF screen [4]: no activity

SMILES: Cc1nc2ccccc2[nH]1 [Compound 24]
activity in the DSF screen [4]: no activity

SMILES: CC1(C)CCC(C)(C)c2cc(C3(c4ccc(C(=O)O)cc4)OCCO3)ccc21 [SR11237]
TM(ref) RXRα (RXRα): 59.0 ± 0.0 °C
